The results in this text go back to PubChem BioAssay (NCI).

Some test systems named below: 786-0 renal; CCRF-CEM leukemia; COLO 205 colon; K-562 leukemia; LOX IMVI melanoma; NCI-H23 lung; SK-MEL-28 melanoma; SN12C renal; PC-3 prostate.
Holding throughout (assay): NCI tumour cell line growth inhibition, 48 h

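Compound exposure: 48 hours, 5 concentrations, 96-well plates. GI50 marks 50% less growth. Definition used: TGI = concentration required for complete inhibition of growth.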

Take `Cc1cc2c(c(C(N)=O)c1C)-c1cccc(F)c1C2=O`: the TGI in the assay with 786-0 renal, in the assay on CCRF-CEM leukemia, in the assay with COLO 205 colon, in the assay with K-562 leukemia, in the assay with LOX IMVI melanoma and in the assay with NCI-H23 lung was greater than 100 µM throughout. In addition, the TGI in the assay with SK-MEL-28 melanoma and with SN12C renal was greater than 100 µM each time.
As for `Cc1ccc(/C=C/c2c(C(=O)/C=C/c3ccccc3)c(C)nc3ccccc23)cc1`, the GI50 was 1.63 µM in the assay with 786-0 renal; 1.69 µM with CCRF-CEM leukemia; 1.6 µM with COLO 205 colon; 1.73 µM in the assay with K-562 leukemia; 1.64 µM with LOX IMVI melanoma; 1.64 µM in the assay with NCI-H23 lung. For the same molecule, the GI50 is 1.84 µM with PC-3 prostate, 1.77 µM in the assay on SK-MEL-28 melanoma and 1.87 µM with SN12C renal. Besides, the TGI in the assay with 786-0 renal was 3.05 µM; in the assay on CCRF-CEM leukemia, greater than 100 µM; in the assay with COLO 205 colon, 3.67 µM; in the assay on K-562 leukemia it was 5.38 µM; with LOX IMVI melanoma it was 3 µM; with NCI-H23 lung it was 3.78 µM. Further, the results for the TGI in the assay with PC-3 prostate, with SK-MEL-28 melanoma and in the assay with SN12C renal were 5.05 µM, 3.27 µM and 3.85 µM, respectively.
In the case of `CCO/C=C1\N=C(c2ccc(Cl)c(Cl)c2)OC1=O`, the TGI in the assay with 786-0 renal, in the assay on CCRF-CEM leukemia, in the assay with COLO 205 colon, in the assay on K-562 leukemia, in the assay on LOX IMVI melanoma and with NCI-H23 lung was greater than 100 µM throughout. Besides, the TGI in the assay with SK-MEL-28 melanoma and with SN12C renal was greater than 100 µM in each case.
Consider `O=C1C2C(C(=O)N1c1ccccc1)C1c3ccccc3C2C2C(=O)N(c3ccccc3)C(=O)C21` (stereo not drawn), for which the TGI with 786-0 renal, in the assay on CCRF-CEM leukemia, with COLO 205 colon, with K-562 leukemia, in the assay with LOX IMVI melanoma and with NCI-H23 lung was greater than 100 µM in each case. For the same molecule, the TGI in the assay on SK-MEL-28 melanoma and in the assay with SN12C renal was greater than 100 µM in each case.
As for `COc1ccccc1N=Nc1c(-c2ccccc2)nn(C(=O)CC(=O)Nc2cccc(C)c2)c1-c1ccccc1`, the TGI in the assay with 786-0 renal is greater than 100 µM; with CCRF-CEM leukemia, greater than 100 µM; in the assay with COLO 205 colon, greater than 100 µM; with K-562 leukemia it was 52.7 µM; in the assay with LOX IMVI melanoma it was greater than 100 µM; with NCI-H23 lung it was greater than 100 µM. Further, the TGI with SK-MEL-28 melanoma and in the assay on SN12C renal was greater than 100 µM throughout.
As for `COC(=O)CCC(NC(=S)N/N=C(\C)c1ccc[nH]1)C(=O)OC` (stereo not drawn), the TGI with 786-0 renal, with CCRF-CEM leukemia, in the assay on COLO 205 colon, in the assay with K-562 leukemia, in the assay on LOX IMVI melanoma and in the assay on NCI-H23 lung was greater than 100 µM each time. Further, the TGI in the assay on SK-MEL-28 melanoma and in the assay with SN12C renal was greater than 100 µM each time.
As for `CC(C)C1CO[C@]2(C)CCC(=O)N12` (stereo partly drawn), the TGI with 786-0 renal, with CCRF-CEM leukemia, in the assay on COLO 205 colon, with K-562 leukemia, in the assay on NCI-H23 lung and in the assay with SK-MEL-28 melanoma was greater than 100 µM in each case. Moreover, the TGI in the assay with SN12C renal is greater than 100 µM.
Turning to `N#C/C(=C1\SCC(=O)N1c1ccccc1)c1nc2ccccc2[nH]1`, the TGI in the assay on 786-0 renal, in the assay with CCRF-CEM leukemia, with COLO 205 colon, in the assay on K-562 leukemia, in the assay with LOX IMVI melanoma and in the assay on NCI-H23 lung was greater than 100 µM each time. In addition, the TGI in the assay with SK-MEL-28 melanoma and in the assay on SN12C renal was greater than 100 µM each time.
Regarding `O=c1cc(-c2ccccn2)[nH]c2cccc(F)c12`, the TGI with 786-0 renal, in the assay with CCRF-CEM leukemia, with COLO 205 colon, in the assay with K-562 leukemia, with LOX IMVI melanoma and with NCI-H23 lung was greater than 100 µM each time. For the same molecule, the TGI with SK-MEL-28 melanoma and with SN12C renal was greater than 100 µM each time.
Consider `CCOC(=O)NC(=O)c1cn(CCN2CCN(C(=O)CNC(=O)CNC(=O)Cn3cc(C(=O)NC(=O)OCC)c(=O)[nH]c3=O)CC2)c(=O)[nH]c1=O`, for which the TGI with 786-0 renal, in the assay with CCRF-CEM leukemia, in the assay with COLO 205 colon, in the assay on K-562 leukemia, with LOX IMVI melanoma and in the assay on NCI-H23 lung was greater than 100 µM in each case. The TGI in the assay on SK-MEL-28 melanoma and with SN12C renal was greater than 100 µM throughout.
Regarding `Cc1ccc(S(=O)(=O)N/N=C(\c2nc3ccc(Cl)cc3[nH]c2=O)C(O)c2ccco2)cc1` (stereo not drawn), the TGI in the assay with 786-0 renal, in the assay with CCRF-CEM leukemia, in the assay with COLO 205 colon, in the assay on K-562 leukemia, in the assay with LOX IMVI melanoma and in the assay on NCI-H23 lung was greater than 100 µM in each case. In the assay on SK-MEL-28 melanoma, the TGI was greater than 100 µM.
In the case of `COc1cc(CNc2nc3c(N)cc(C(F)(F)F)cc3nc2-c2ccccc2)cc(OC)c1OC`, the TGI with 786-0 renal, in the assay with CCRF-CEM leukemia, in the assay on COLO 205 colon, in the assay with K-562 leukemia, with LOX IMVI melanoma and in the assay with NCI-H23 lung was greater than 100 µM throughout. For the same molecule, the TGI in the assay on SK-MEL-28 melanoma and with SN12C renal was greater than 100 µM each time. Further, in the assay on CCRF-CEM leukemia, the GI50 was greater than 100 µM.
For the molecule `C=C1C(=O)O[C@H]2[C@H]1CC/C(COC(=O)CCCCCC(=O)OC/C1=C/CC[C@@]3(C)O[C@H]3[C@H]3OC(=O)C(=C)[C@@H]3CC1)=C\CC[C@@]1(C)O[C@@H]21`, the GI50 was 1.09 µM in the assay on 786-0 renal; 0.393 µM in the assay with CCRF-CEM leukemia; 1.46 µM in the assay with COLO 205 colon; 1.18 µM with K-562 leukemia; 1.47 µM in the assay on LOX IMVI melanoma; 2.72 µM in the assay with NCI-H23 lung. Besides, the figures for the GI50 in the assay on PC-3 prostate, with SK-MEL-28 melanoma and with SN12C renal were 2.24 µM, 2.45 µM and 2.86 µM, respectively. Besides, the TGI came to 2.49 µM with 786-0 renal; 3.86 µM in the assay on CCRF-CEM leukemia; 3.32 µM with COLO 205 colon; 10.2 µM with K-562 leukemia; 2.88 µM with LOX IMVI melanoma; 9.98 µM in the assay on NCI-H23 lung. Moreover, the TGI with PC-3 prostate stood at 5.96 µM; in the assay on SK-MEL-28 melanoma, 6.84 µM; with SN12C renal it was 11.5 µM.
